Where a name gives a salt, the structure may show the parent alone.
Experiment: Diffusion of solvents in a 5.6 W electric diffuser (Example 1)
Assay type: physicochemical
Settings: 48 ml solvent, average per day over 30 days
Method: 48 ml of solvent to be tested are placed in a 5.6 W electric diffuser. The amount of solvent diffused is measured for 30 days following plugging in of the diffuser, and the average diffusion of product per day is calculated and summarized in Table 1 below: […]

Row | Compound | Diffusion of product [g/day]
1 | Glycofurol | 0.5
2 | CO[C@H]1CO[C@H]2[C@@H]1OC[C@H]2OC [Isosorbide dimethyl ether] | 2
3 | CC(C)OC(=O)CCCCCCCCC(=O)OC(C)C [Diisopropyl sebacate] | 1

The remaining lines, values ahead:

Row | Diffusion of product [g/day] | Compound
4 | 1 | CCOC(=O)CC(O)(CC(=O)OCC)C(=O)OCC [Triethyl citrate]
5 | 4 | CC1COC(=O)O1 (stereo not shown) [Propylene carbonate]
6 | 1 | CCCCCCCCCCCCCC(=O)OC(C)C [Isopropyl myristate]
7 | 2 | CC(C)CCCCCCOC(=O)CCCCCC(C)C [Isononyl isononanoate]
